Results: paper PMC12303054, “First-in-class inhibitors of Nsp15 endoribonuclease of SARS-CoV-2: Modeling, synthesis, and enzymatic assay of thiazolidinedione and rhodanine analogs” (The Journal of Biological Chemistry, 2025)

Tests used:
Assay type in all cases: biochemical
Settings in all cases: 100 µM
[1] = target: His250Ala SARS-CoV-2 Nsp15 (Severe acute respiratory syndrome coronavirus 2, UniProt P0DTD1, H6701A)
[2] = target: Ser294Ala SARS-CoV-2 Nsp15 (Severe acute respiratory syndrome coronavirus 2, UniProt P0DTD1, S6745A)
[3] = target: Tyr343Ala SARS-CoV-2 Nsp15 (Severe acute respiratory syndrome coronavirus 2, UniProt P0DTD1, Y6794A)
[4] = target: Lys345Ala SARS-CoV-2 Nsp15 (Severe acute respiratory syndrome coronavirus 2, UniProt P0DTD1, K6796A)

Measured: residual activity retained

O=C1NC(=S)SC1=CC=Cc1ccnc2ccccc12 [KCO237, 5-(3-quinolin-4-yl-allylidene)-2-thioxo-thiazolidine-4-one]
approximately 50%: all assays above
